The results in this text go back to patent US20200338044A1 (PCI Biotech AS, priority 2016, published 2020).

“Also recorded” adds a separate entry of the source.

In series [1] the test system is EGI-1 cell line. How it is done:
(§1) Di (monoethanolammonium) meso-tetraphenyl chlorin disulfonate (TPCS2a/Amphinex®) was provided by PCI Biotech AS (Lysaker, Norway). Amphinex batch number: FAMP 1002. TPCS2a (in 3% polysorbate 80, 2.8% mannitol, 50 mM Tris pH 8.5) stock solution (0.4 mg/ml) was kept at 4° C. in aliquots and light protected. All work with the photosensitizer was performed under subdued light.
(§2) Illumination of the cells was performed by using Lumisource (PCI Biotech, Oslo). This lamp consists of four standard light tubes (18 W/tube, Osram L 18/67), which emit blue light with a main peak at approximately 435 nm and was used for excitation of TPCS2a. The irradiance emitted from the blue light source was 12 mW/cm^2 and varied less than 10% across the illumination area (765 cm^2). The light source was air-cooled during light exposure to keep the irradiance stable and prevent cells from hyperthermia.
(§3) Cells were seeded in 96-well or 6-well plates (Nunclon, Nunc, Roskilde, Denmark) and allowed to attach at 37° C. overnight. […]
(§4) The MTT method (tetrazolium dye reduction) was performed 48 h after light exposure with Lumisource. […] The 96 well plates were set on a shaker for 5 minutes before absorbance was measured at 570 nm with a power wave XS2 (Biotek, VT, USA). […]

Series [2] concerns TFK-1 cell line. Description: Cytotoxicity of gemcitabine without PCI, MTT assay. The series is classed as cell-based, human. The text has this:
The cell lines used were TFK-1 and EGI-1, both were obtained from the Department of Cancer Prevention, The Norwegian Radium Hospital, Oslo, Norway. TFK-1 is a human papillary bile duct adenocarcinoma cell line and EGI-1 is a poorly differentiated human bile duct adenocarcinoma cell line. Both cell lines originate from extrahepatic tumours (Saijyo et al., 1995, Tohoku J. Exp. Med., 177:61-71; EGI-1—Cell LINCS Library of Intergrated network-based Cellular Signatures. Available from the website having the URL beginning with “lincs” and ending with “.hms.harvard.edu/db/cells/50181/”), but are quite different both morphologically and physiologically (Xu et al., 2013, Clinical Cancer Research, January 1; 19(1):118-27; Pignochino et al., 2010, BMC Cancer, 10:631).
The MTT method (tetrazolium dye reduction) was performed 48 h after light exposure with Lumisource. The culture medium was removed and cells were incubated in medium containing 0.25 mg/ml MTT (Sigma) for approximately 3 hours before replacement with 100 μl of 99% dimethylsulfoxide (Sigma). The 96 well plates were set on a shaker for 5 minutes before absorbance was measured at 570 nm with a power wave XS2 (Biotek, VT, USA). Wells without cells incubated with MTT-medium only were used for blank subtraction.

Series [3] deals with TFK-1 cell line. Description: PCI with gemcitabine, MTT cytotoxicity assay. The series is classed as cell-based, human. How it is done: as §1, §2, §3, §4
Series [4] has as its system EGI-1 cell line. Description: Cytotoxicity of gemcitabine without PCI, MTT assay. The series is classed as cell-based, human. From the text:
The cell lines used were TFK-1 and EGI-1, both were obtained from the Department of Cancer Prevention, The Norwegian Radium Hospital, Oslo, Norway. TFK-1 is a human papillary bile duct adenocarcinoma cell line and EGI-1 is a poorly differentiated human bile duct adenocarcinoma cell line. Both cell lines originate from extrahepatic tumours (Saijyo et al., 1995, Tohoku J. Exp. Med., 177:61-71; EGI-1-Cell LINCS Library of Intergrated network-based Cellular Signatures. Available from the website having the URL beginning with “[…] ending with “.hms.harvard.edu/db/cells/50181/”), but are quite different both morphologically and physiologically (Xu et al., 2013, Clinical Cancer Research, January 1; 19(1):118-27; Pignochino et al., 2010, BMC Cancer, 10:631).

For series [5], the system named is TFK-1 cells. Description: Colony formation assay after PCI treatment. The series is classed as cell-based, human. How it is done: Cells (25 000 cells/well) were seeded out in 6 well plates (Nunc) and allowed to adhere overnight and subjected to photochemical treatment described above. The cells were placed in the incubator and the culture medium was replaced with fresh culture medium after 3 days incubation. […] Subsequently, cells were washed in H2O and then dried before being evaluated by visual inspection.

Series [6] deals with NCI-H460 human lung cancer tumour cells. Description: Tumour growth of subcutaneous NCI-H460 xenografts after PCI with gemcitabine. The series is classed as in vivo, Nude (nu/nu) athymic mice. The settings on record: for No. of animals alive at the end of study: 10 animals at start. The protocol:
Nude (nu/nu) athymic mice (female, CD-1 nu/nu strain, at least 6 weeks old) were used which have been used extensively to generate human tumour xenografts and remain the experimental method of choice for testing anti-tumour efficacy of new compounds prior to administration in man. The route of administration of the test substances was intravenous. The dose of Amphinex® was 5 mg/kg, based on earlier mouse studies performed by PCI Biotech AS and collaborators.
There were 6 treatment groups with 10 mice per group. Mice were injected subcutaneously with 7×10^7 cells/mL NCI-H460 tumour cells to allow selection of optimal tumours for inclusion in the study. Tumours of the appropriate size were allocated to the various treatment groups.
Amphinex® was administered intravenously via a tail vein, using a dose volume of 4 mL/kg.
Human NCI-H460 non-small cell lung cancer cells (American Type Culture Collection [ATCC], Maryland, USA, or the European Collection of Cell Cultures [ECACC], Porton Down, UK) were harvested from sub-confluent cultures growing in vitro and the number of viable cells determined. Cells were then re-suspended in sterile phosphate buffered saline (PBS) at a concentration of approximately 7×10^7 cells/mL. Nude (nu/nu) athymic mice were injected subcutaneously in the right flank with approximately 7×10^6 NCI-H460 cells in a volume of 0.1 mL. Animals were examined regularly for the appearance of tumours. When measurable tumours had established in the majority of mice, animals were assigned into 6 treatment groups with a target of up to 10 mice per group. Mice received an intravenous injection of Amphinex when the tumours had reached a size such that the tumour volume was approximately in the range 100 to 150 mm^3 72 hours later.
For tumour illumination each animal was restrained, one at a time, in a metal restraint which allows only the lower flank area, i.e. tumour area plus a 2 mm diameter surrounding area, to be exposed. A 650 nm diode laser (TWI Diode Laser, Quanta System, Italy) was then used to expose the tumour tissue to a light dose of 15 J/cm^2, with a fluence rate of 90 mW/cm^2. Each animal had their tumour exposed to the laser for approximately 167 s, to give the required dose of 15 J/cm^2.
Tumour size was measured at least twice weekly using digital callipers for up to 4 weeks following illumination or until the tumour size (as specified in the UK Home Office Licence) or other clinical signs necessitated removal of that mouse from the study. Tumour dimensions were recorded (length and width), and tumour volumes calculated using the formula (W^2×L)/2, where W is the […] tumour dimension and L is the longest. Animals were terminated if the tumour size had become excessive or any adverse effects were noted.
The tumour dimensions measured over the period of the study—length (L, long) and width (W, short) in mm, were recorded and kept as raw data. The mean tumour volumes on the first day of treatment were reported for each group. Calculations of relative tumour volumes and plots of mean tumour growth curves were performed. Body weight data were also obtained.

The mark [7] stands for this setting: gemcitabine 100 nM alone, no PCI.
Setting [8] is: 4 hours exposure, up to 1 mM tested, data not shown.

Take `Nc1ccn([C@@H]2O[C@H](CO)[C@@H](O)C2(F)F)c(=O)n1` [Gemcitabine, 4-amino-1-(2-deoxy-2,2-difluoro-β-D-erythro-pentofuranosyl)pyrimidin-2(1H)-on]: in series [1] (setting [7]), the “effect on cell survival” value is recorded as “no effect on cell survival”. For the same compound, the cytotoxic effect result in series [2] (setting [8]) is given as “only a very modest cytotoxic effect”; in series [3] (setting [7]), “about 50%”; in series [4] (setting [8]) it was “only a very modest cytotoxic effect”. For the same compound, in series [2] (72 hours exposure, 3 μM gemcitabine), the cytotoxicity entry was “about 50%”. Also, the “cell killing (>90% level)” value in series [4] (3 000 nM gemcitabine without PCI, 72 hours) is “this level of cell killing was not obtained”. Moreover, the “sensitivity to gemcitabine (cytotoxicity)” value in series [4] (72 hours exposure, highest dose employed (up to 3 μM)) is on record as “insensitive”. Also, the colony forming ability result in series [5] (gemcitabine 10 nM, PCI illumination time 140 s) was “substantial colony formation was observed”; in series [5] (gemcitabine 33 nM), “some colony formation could be observed”; in series [5] (gemcitabine 100 nM), “unable to form colonies”; in series [5] (gemcitabine 330 nM), “unable to form colonies”. In addition, the “effect on tumour growth” value is listed as “no” in series [6] (gemcitabine 200 mg/kg i.v., PCI: Amphinex 5 mg/kg i.v. + 650 nm 15 J/cm^2); “neither the photochemical treatment alone (PCI alone) nor gemcitabine alone had a significant effect on tumour growth” in series [6] (gemcitabine 200 mg/kg i.v., PCI: Amphinex 5 mg/kg i.v. + 650 nm 15 J/cm^2, listed as gemcitabine); “only a very modest; also recorded: neither the photochemical treatment alone (PCI alone) nor gemcitabine alone (Gemcitabine 400 mg/kg) had a significant effect on tumour growth” in series [6] (gemcitabine 400 mg/kg i.v., PCI: Amphinex 5 mg/kg i.v. + 650 nm 15 J/cm^2). For the same compound, the “No. of animals alive at the end of study” value in series [6] (gemcitabine 200 mg/kg) was found to be 5; in series [6] (gemcitabine 400 mg/kg), 6.
Turning to “Di (monoethanolammonium) meso-tetraphenyl chlorin disulfonate [PCI alone]”, in series [1] (photochemical treatment alone, highest light dose), the cells killed result is listed as “about 50%”. For the same compound, the “effect on cell survival” value in series [3] (photochemical treatment alone, 0.4 μg/ml TPCS2a + blue light) is “only a modest effect on cell survival”. For the same compound, the colony forming ability result in series [5] (PCI alone, illumination time 140 s) is on record as “still had the ability to form colonies”. Also, the “No. of animals alive at the end of study” value in series [6] (Amphinex 5 mg/kg + laser, no gemcitabine) was found to be 2. Moreover, the “effect on tumour growth” value in series [6] (Amphinex 5 mg/kg i.v. + laser 15 J/cm^2, without gemcitabine) is “virtually no effect; also recorded: neither the photochemical treatment alone (PCI alone) nor gemcitabine alone (Gemcitabine 400 mg/kg) had a significant effect on tumour growth”.
